Experimental data taken from patent publication US20250282749A1 (Tango Therapeutics, Inc., priority 2022, published 2025).

Key:
Assay type in all cases: cell-based
[1] = system: PRMT5 (SDMA) in HAP1 MTAP-intact cell line; assay: SDMA in-cell western assay, HAP1 MTAP-intact cell line; details: Homo sapiens, HAP1 MTAP-intact cell line (endogenous MTAP), read-out: Hap 1 MTAP intact IC50
Source text: (§1) HAP1 MTAP-intact is a cell line in which endogenous levels of MTAP are expressed, and HAP1 MTAP-deleted is an MTAP-null cell line.

[2] = system: PRMT5 (SDMA) in HAP1 MTAP-deleted cell line; assay: SDMA in-cell western assay, HAP1 MTAP-deleted cell line; details: for IC50 / IC90: Homo sapiens, SDMA in-cell western, HAP1 MTAP-deleted (MTAP-null) cell line; for Hap1 MTAP intact/deleted ratio: ratio of SDMA in-cell western IC50 in HAP1 MTAP-intact to IC50 in HAP1 MTAP-deleted cell line
Source text: as §1

[3] = system: HAP1 MTAP-deleted cell line; assay: viability assay for the MTAP-deleted cell line; details: Homo sapiens

SMILES	IC50 [1] [nM]	IC50 [2] [nM]	Hap1 MTAP intact/deleted ratio [2]	IC50 [3] [nM]	IC90 [2] [nM]
CCN1C[C@H](c2ccccc2)N(C(=O)C(=O)Nc2cnc(N)c3cn[nH]c23)C[C@H]1C (racemic) [Compound 162, N-(4-Amino-1H-pyrazolo[4,3-c]pyridin-7-yl)-2-oxo-2-[rac-(2S,5R)-4-ethyl-5-methyl-2-phenyl-piperazin-1-yl]acetamide]	> 50	< 5	A (an IC50 ratio greater than or equal to 30 fold)	< 100	
C[C@@H]1CN(C(=O)C(=O)Nc2cnc(N)c3cn[nH]c23)[C@@H](c2ccccc2)CN1C1CCC1 (racemic) [Compound 163, N-(4-Amino-2H-pyrazolo[4,3-c]pyridin-7-yl)-2-oxo-2-[rac-(2S,5R)-4-cyclobutyl-5-methyl-2-phenyl-piperazin-1-yl]acetamide]	5 to 50	< 5	C (an IC50 ratio of less than 15 fold)	< 100	
C[C@@H]1CN(C(=O)C(=O)Nc2cnc(N)c3cn[nH]c23)[C@@H](c2ccccc2)CN1C1(C)CC1 (racemic) [Compound 167, N-(4-Amino-1H-pyrazolo[4,3-c]pyridin-7-yl)-2-oxo-2-[rac-(2S,5R)-5-methyl-4-(1-methylcyclopropyl)-2-phenyl-piperazin-1-yl]acetamide]	> 50	< 5	A (an IC50 ratio greater than or equal to 30 fold)	< 100	
C[C@@H]1CN(C(=O)C(=O)Nc2cnc(N)c3cn[nH]c23)[C@@H](c2ccccc2)CN1C1CC1 (racemic) [Compound 170, N-(4-Amino-1H-pyrazolo[4,3-c]pyridin-7-yl)-2-oxo-2-[rac-(2S,5R)-4-cyclopropyl-5-methyl-2-phenyl-piperazin-1-yl]acetamide]	5 to 50	< 5	C (an IC50 ratio of less than 15 fold)	< 100	
Cc1cc(NC(=O)C(=O)N2C[C@@H](C)N(C(=O)C(C)C)C[C@@H]2c2ccc3scnc3c2)cnc1N (single isomer, unassigned) [Compound 43]	> 50	5 to 50	C (an IC50 ratio of less than 15 fold)	100 to 1000	> 125
Cc1cc(NC(=O)C(=O)N2C[C@H](C)N(C(=O)C(C)C)C[C@H]2c2ccc3scnc3c2)cnc1N (single isomer, unassigned) [Compound 45]	> 50	> 50	C (an IC50 ratio of less than 15 fold)	> 1000	> 125
Cc1cc(NC(=O)C(=O)N2C[C@@H](C)N(C(=O)C3(C)CC3)C[C@@H]2c2cccs2)cnc1N (single isomer, unassigned) [Compound 53]	5 to 50	< 5	C (an IC50 ratio of less than 15 fold)	< 100	< 75
CC(C)CN1C[C@@H](c2ccc(F)cc2)N(C(=O)C(=O)Nc2cnc(N)c(C3CC3)c2)C[C@H]1C (single isomer, unassigned) [Compound 84]	> 50	5 to 50	A (an IC50 ratio greater than or equal to 30 fold)	< 100	< 75
CCc1cc(NC(=O)C(=O)N2CCN(C(=O)C3(C(F)(F)F)CC3)C[C@H]2c2ccc(F)c(Cl)c2)cnc1N (single isomer, unassigned) [Compound 123]	> 50	5 to 50	A (an IC50 ratio greater than or equal to 30 fold)	100 to 1000	> 125
CC(C)OC(=O)N1C[C@H](c2ccc(F)cc2)N(C(=O)C(=O)Nc2cnc(N)c(C3CC3)c2)C[C@H]1C (stereo in doubt) [Compound 92, isopropyl 4-(2-((6-amino-5-cyclopropylpyridin-3-yl)amino)-2-oxoacetyl)-5-(4-fluorophenyl)-2-methylpiperazine-1-carboxylate]	> 50	> 50	C (an IC50 ratio of less than 15 fold)	> 1000	> 125
Cc1cc(NC(=O)C(=O)N2CCN(C(=O)C3(C(F)(F)F)CC3)[C@H](C)[C@H]2c2ccc(F)cc2)cnc1N (stereo in doubt) [Compound 118, N-(6-amino-5-methyl-3-pyridyl)-2-[2-(4-fluorophenyl)-3-methyl-4-[1-(trifluoromethyl)cyclopropanecarbonyl]piperazin-1-yl]-2-oxo-acetamide]	> 50	5 to 50	B (an IC50 ratio greater than or equal to 15 fold but lower than 30 fold)	100 to 1000	> 125
C[C@@H]1CN(C(=O)C(=O)Nc2cnc(N)c(C3CC3)c2)[C@@H](c2ccc(F)cc2)CN1C(=O)OC(C)(C)C (stereo in doubt) [Compound 144, tert-butyl 4-(2-((6-amino-5-cyclopropylpyridin-3-yl)amino)-2-oxoacetyl)-5-(4-fluorophenyl)-2-methylpiperazine-1-carboxylate]	> 50	< 5	B (an IC50 ratio greater than or equal to 15 fold but lower than 30 fold)	< 100	< 75
C[C@H]1CN(C(=O)C(=O)Nc2cnc(N)c(C3CC3)c2)[C@H](c2ccc(F)cc2)CN1C(=O)OC(C)(C)C (stereo in doubt) [Compound 146, tert-butyl 4-(2-((6-amino-5-cyclopropylpyridin-3-yl)amino)-2-oxoacetyl)-5-(4-fluorophenyl)-2-methylpiperazine-1-carboxylate]	> 50	> 50	C (an IC50 ratio of less than 15 fold)	> 1000	> 125
C[C@@H]1CN(C(=O)C(=O)Nc2cnc(N)c(C3CC3)c2)[C@@H](c2ccc(F)cc2)CN1C(=O)OC(C)(C)C (stereo in doubt) [Compound 148, tert-butyl 4-(2-((6-amino-5-cyclopropylpyridin-3-yl)amino)-2-oxoacetyl)-5-(4-fluorophenyl)-2-methylpiperazine-1-carboxylate]	> 50	< 5	A (an IC50 ratio greater than or equal to 30 fold)	< 100	> 125
CC(C)OC(=O)N1C[C@@H](c2ccc(F)cc2)N(C(=O)C(=O)Nc2cnc(N)c(C3CC3)c2)C[C@@H]1C (stereo in doubt) [Compound 151, isopropyl 4-(2-((6-amino-5-cyclopropylpyridin-3-yl)amino)-2-oxoacetyl)-5-(4-fluorophenyl)-2-methylpiperazine-1-carboxylate]	> 50	< 5	B (an IC50 ratio greater than or equal to 15 fold but lower than 30 fold)	< 100	< 75
CCc1cc(NC(=O)C(=O)N2CCN(C(=O)C3(C(F)(F)F)CC3)[C@@H](C)[C@@H]2c2ccc(F)cc2)cnc1N [Compound 1]	> 50	5 to 50	A (an IC50 ratio greater than or equal to 30 fold)	< 100	75 to 125
